# Source: patent publication US20240122941A1, “THERAPY BASED ON SYNTHETIC LETHALITY IN SWI/SNF COMPLEX-DYSFUNCTION CANCER” (NATIONAL CANCER CENTER, priority 2020, published 2024)
# Read-outs that look alike come from different tables or passages of the source.
# Tests used:
# [1] = system: H23 cells (pulmonary adenocarcinoma derived, SMARCA2/A4 deficient); experiment: Cell growth suppression experiment (CellTiter-Glo), H23 cells; format: cell-based; conditions: for cell survival rate (%) at treatment with 10 μM, H23: 6 days; for IC50: Homo sapiens, NCI-H23, 144 h, cultured for 6 days, CellTiter-Glo;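 on all read-outs here: compounds tested as CBP/P300 agents, added one day after plating in 96-well plates with DMEM-F12 plus 10% fetal bovine serum, 0.1% DMSO final, luminescent viability read-out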
# [2] = system: DMS114 cells (small cell lung cancer derived, SMARCA2/A4 deficient); experiment: Cell growth suppression experiment (CellTiter-Glo), DMS114 cells; format: cell-based; conditions: for IC50: Homo sapiens, DMS-114, 144 h, cultured for 6 days, CellTiter-Glo; for cell growth suppression effect on DMS114 cells: result in words
# [3] = system: TOV112D cells (small cell ovarian cancer derived, SMARCA2/A4 deficient); experiment: Cell growth suppression experiment (CellTiter-Glo), TOV112D cells; format: cell-based; conditions: for cell survival rate (%) at treatment with 10 μM, TOV112D: 6 days; for IC50: Homo sapiens, 144 h, cultured for 6 days, CellTiter-Glo;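 on all read-outs here: luminescent viability read-out of TOV112D cells grown in DMEM-F12 with 10% fetal bovine serum, compound exposure starting one day after plating, DMSO at 0.1% final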
# [4] = system: H460 cells (pulmonary adenocarcinoma derived, SMARCA2/A4 wild-type); experiment: Cell growth suppression experiment (CellTiter-Glo), H460 cells; format: cell-based; conditions: Homo sapiens, NCI-H460, 144 h; for viability at 10 µM: 6 days, read-out: cell survival rate (%) at treatment with 10 μM, H460; for IC50: cultured for 6 days, CellTiter-Glo;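 on all read-outs here: luminescent viability read-out, compound added one day after seeding at 0.1% final DMSO, cells grown in DMEM-F12 with 10% fetal bovine serum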
# [5] = system: JMU-RTK-2 cells (malignant rhabdoid tumor derived, SMARCB1 deficient); experiment: Selectivity in cell growth suppression, JMU-RTK-2 cells; conditions: for IC50: 144 h; for Selective Index: IC50 of JMU-RTK-2+SMARCB1 cells with respect to IC50 of JMU-RTK-2 cells
# From the text: (§1) The cytotoxic activity of a CBP/P300 inhibitor on JMU-RTK-2 cells and JMU-RTK-2+SMARCB1 cells was compared.
# CBP bromodomain = CBP bromodomain (Homo sapiens (Human), UniProt Q92793); experiment: BRD inhibition experiment, CBP bromodomain TR-FRET Assay Kit
# [6] = system: G-401 cells (malignant rhabdoid tumor derived, SMARCB1 deficient); experiment: Cell growth suppression experiment (CellTiter-Glo), G-401 cells; conditions: for cell survival rate (%) at treatment with 10 μM, G-401: G-401 cells, 10 μM (maximum treatment concentration), 3 days; for IC50: Homo sapiens, G-401, 72 h
# Procedure: (§2) G-401 cells and G-402 cells were cultured under the conditions of 5% CO2 at 37° C. in a 10% fetal bovine serum and 1% penicillin/streptomycin-containing McCoy's 5A medium. CHLA-06-ATRT cells were cultured under the conditions of 5% CO2 at 37° C. in a 10% B-27 supplement, 20 ng/mL EGF, 20 ng/mL FGF, and 1% penicillin/streptomycin-containing DMEM:F12 medium.
# [7] = system: 786-O cells (renal cancer derived, SMARCB1 wild-type); experiment: Cell growth suppression experiment (CellTiter-Glo), 786-O cells; conditions: Homo sapiens, 786-0, 72 h; for IC50: read-out: IC50 786-O; for viability at 10 µM: read-out: cell survival rate (%) at treatment with 10 μM, 786-O
# Procedure: as §2
# [8] = system: JMU-RTK-2+SMARCB1 cells (JMU-RTK-2 cells overexpressing SMARCB1); experiment: Selectivity in cell growth suppression, JMU-RTK-2+SMARCB1 cells; conditions: 144 h
# From the text: as §1
# recombinant p300 = recombinant p300 (Homo sapiens (Human), UniProt Q09472); experiment: HAT activity inhibiting experiment, SensoLyte HAT (p300) Assay Kit; format: biochemical; conditions: recombinant p300, acetyl-CoA, histone H3 peptide, fluorescence; read-out: HAT activity inhibition IC50
# Procedure: 50 μL of Stop Solution was added to quench the reaction. 100 μL of p300 Developer solution diluted 50-fold with an assay buffer was added, and the mixture was incubated for 30 minutes at room temperature under shaded conditions.
# [9] = system: SMARCA2/A4 deficient cells, i.e., H23 cells, DMS114 cells, and TOV112D cells; experiment: Cell growth suppression experiment, SMARCA2/A4 deficient cells (summary of Example 8); format: cell-based; conditions: H23, DMS114 and TOV112D cells versus H460 cells; result in words
# Procedure: Cytotoxic activity of a CBP/P300 on SMARCA2/A4 deficient cells, i.e., H23 cells (pulmonary adenocarcinoma derived), TOV112D cells (small cell ovarian cancer derived), and DMS114 cells (small cell lung cancer derived), and SMARCA2/A4 wild-type cells, i.e., H460 cells (pulmonary adenocarcinoma derived) was compared.
# H23 cells, TOV112D cells, DMS114 cells, and H460 cells were cultured under 5% CO2 conditions at 37° C. in a 10% fetal bovine serum and 1% penicillin/streptomycin-containing DMEM-F12 medium.
# Cells were seed on a 96-well plate at 250 to 500 cells per well. […] After completion of culture, the cell survival rate was measured using CellTiter-Glo Luminescent Cell Viability Assay (Promega, G770).
# [10] = system: CHLA-06-ATRT cells (atypical teratoid/rhabdoid tumor derived, SMARCB1 deficient); experiment: Cell growth suppression experiment (CellTiter-Glo), CHLA-06-ATRT cells; conditions: 72 h, read-out: IC50 CHLA-06-ATRT
# Procedure: as §2
# [11] = system: SMARCB1 deficient cells, i.e., G-401 cells, G-402 cells, and CHLA-06-ATRT cells; experiment: Cell growth suppression experiment, SMARCB1 deficient cells (summary of Example 1); conditions: G-401, G-402 and CHLA-06-ATRT cells versus 786-O cells; result in words
# Procedure: as §2
# [12] = system: ARID1 deficient cancer cell group versus ARID1 wild-type cell group; experiment: Experiment comparing sensitivity depending on the presence/absence of ARID1; format: cell-based; conditions: 6 days culture, CellTiter-Glo, FIG. 12; result in words
# From the text: Cytotoxic activity of a CBP/P300 inhibitor on ARID1 deficient cancer cells, i.e., A2780 cells (ovarian cancer derived), RMG-V cells (ovarian cancer derived), TOV21G cells (ovarian cancer derived), and OVISE cells (ovarian cancer derived), and ARID1 wild-type cells, i.e., H1048 cells, H460 cells, 786-O cells, H2228 cells, H2009 cells, and H358 cells, was compared.
# [13] = system: histone H3K27 acetylation in G-401 cells and CHLA-06-ATRT cells; experiment: Intracellular histone H3K27 acetylation inhibition experiment (Western blotting); format: cell-based; conditions: G-401 and CHLA-06-ATRT cells, 24 hours, FIG. 7
# Procedure: G-401 cells (malignant rhabdoid tumor derived) and CHLA-06-ATRT cells (atypical teratoid/rhabdoid tumor derived) were seeded on a 6-well plate at 500000 cells per well. […] After completion of culture, the cells were detached through trypsin treatment. The culture was centrifuged and the supernatant was removed to recover cell pellets. 150 μL of RIPA buffer was added to the cell pellets to lyse the cells to extract the entire protein. Acetylation of histone H3K27 was detected by Western blotting. An anti-acetylation H3K27 antibody (Cell Signaling Technology, 8173) was used for the detection of acetylated H3K27 (FIG. 7).
# [14] = system: SMARCB1 deficient cell group versus SMARCB1 wild-type cell group; experiment: Experiment comparing sensitivity depending on the presence/absence of SMARCB1; format: cell-based; conditions: 6 days culture, CellTiter-Glo, FIG. 3; result in words
# From the text: Cytotoxic activity of a CBP/P300 inhibitor on SMARCB1 deficient cells, i.e., G-401 cells (malignant rhabdoid tumor derived), G-402 cells (malignant rhabdoid tumor derived), JMU-RTK-2 cells (malignant rhabdoid tumor derived), and HS-EU-1 cells (epithelioid sarcoma derived), and SMARCB1 wild-type cells, i.e., 786-O cells (renal cancer derived), VMRC-RCZ cells (renal cancer derived), Caki-1 cells (renal cancer derived), H446 cells (lung cancer derived), ES2 cells (ovarian cancer derived), H460 cells (lung cancer derived), H2228 cells (lung cancer derived), HEK293T cells (normal kidney tissue derived), and H358 cells (lung cancer derived) was compared.
# [15] = read-out: JMU-RTK-2 IC50, JMU-RTK-2 cells, cultured for 6 days, CellTiter-Glo
# [16] = read-out: IC50 G-401, G-401 cells, cultured for 3 days, CellTiter-Glo cell survival
# [17] = read-out: JMU-RTK-2 + SMARCB1 IC50, JMU-RTK-2+SMARCB1 cells, cultured for 6 days, CellTiter-Glo
# [18] = read-out: JMU-RTK-2 + SMARCB1 IC50
# Chain of recombinant p300 (Q09472 whole entry): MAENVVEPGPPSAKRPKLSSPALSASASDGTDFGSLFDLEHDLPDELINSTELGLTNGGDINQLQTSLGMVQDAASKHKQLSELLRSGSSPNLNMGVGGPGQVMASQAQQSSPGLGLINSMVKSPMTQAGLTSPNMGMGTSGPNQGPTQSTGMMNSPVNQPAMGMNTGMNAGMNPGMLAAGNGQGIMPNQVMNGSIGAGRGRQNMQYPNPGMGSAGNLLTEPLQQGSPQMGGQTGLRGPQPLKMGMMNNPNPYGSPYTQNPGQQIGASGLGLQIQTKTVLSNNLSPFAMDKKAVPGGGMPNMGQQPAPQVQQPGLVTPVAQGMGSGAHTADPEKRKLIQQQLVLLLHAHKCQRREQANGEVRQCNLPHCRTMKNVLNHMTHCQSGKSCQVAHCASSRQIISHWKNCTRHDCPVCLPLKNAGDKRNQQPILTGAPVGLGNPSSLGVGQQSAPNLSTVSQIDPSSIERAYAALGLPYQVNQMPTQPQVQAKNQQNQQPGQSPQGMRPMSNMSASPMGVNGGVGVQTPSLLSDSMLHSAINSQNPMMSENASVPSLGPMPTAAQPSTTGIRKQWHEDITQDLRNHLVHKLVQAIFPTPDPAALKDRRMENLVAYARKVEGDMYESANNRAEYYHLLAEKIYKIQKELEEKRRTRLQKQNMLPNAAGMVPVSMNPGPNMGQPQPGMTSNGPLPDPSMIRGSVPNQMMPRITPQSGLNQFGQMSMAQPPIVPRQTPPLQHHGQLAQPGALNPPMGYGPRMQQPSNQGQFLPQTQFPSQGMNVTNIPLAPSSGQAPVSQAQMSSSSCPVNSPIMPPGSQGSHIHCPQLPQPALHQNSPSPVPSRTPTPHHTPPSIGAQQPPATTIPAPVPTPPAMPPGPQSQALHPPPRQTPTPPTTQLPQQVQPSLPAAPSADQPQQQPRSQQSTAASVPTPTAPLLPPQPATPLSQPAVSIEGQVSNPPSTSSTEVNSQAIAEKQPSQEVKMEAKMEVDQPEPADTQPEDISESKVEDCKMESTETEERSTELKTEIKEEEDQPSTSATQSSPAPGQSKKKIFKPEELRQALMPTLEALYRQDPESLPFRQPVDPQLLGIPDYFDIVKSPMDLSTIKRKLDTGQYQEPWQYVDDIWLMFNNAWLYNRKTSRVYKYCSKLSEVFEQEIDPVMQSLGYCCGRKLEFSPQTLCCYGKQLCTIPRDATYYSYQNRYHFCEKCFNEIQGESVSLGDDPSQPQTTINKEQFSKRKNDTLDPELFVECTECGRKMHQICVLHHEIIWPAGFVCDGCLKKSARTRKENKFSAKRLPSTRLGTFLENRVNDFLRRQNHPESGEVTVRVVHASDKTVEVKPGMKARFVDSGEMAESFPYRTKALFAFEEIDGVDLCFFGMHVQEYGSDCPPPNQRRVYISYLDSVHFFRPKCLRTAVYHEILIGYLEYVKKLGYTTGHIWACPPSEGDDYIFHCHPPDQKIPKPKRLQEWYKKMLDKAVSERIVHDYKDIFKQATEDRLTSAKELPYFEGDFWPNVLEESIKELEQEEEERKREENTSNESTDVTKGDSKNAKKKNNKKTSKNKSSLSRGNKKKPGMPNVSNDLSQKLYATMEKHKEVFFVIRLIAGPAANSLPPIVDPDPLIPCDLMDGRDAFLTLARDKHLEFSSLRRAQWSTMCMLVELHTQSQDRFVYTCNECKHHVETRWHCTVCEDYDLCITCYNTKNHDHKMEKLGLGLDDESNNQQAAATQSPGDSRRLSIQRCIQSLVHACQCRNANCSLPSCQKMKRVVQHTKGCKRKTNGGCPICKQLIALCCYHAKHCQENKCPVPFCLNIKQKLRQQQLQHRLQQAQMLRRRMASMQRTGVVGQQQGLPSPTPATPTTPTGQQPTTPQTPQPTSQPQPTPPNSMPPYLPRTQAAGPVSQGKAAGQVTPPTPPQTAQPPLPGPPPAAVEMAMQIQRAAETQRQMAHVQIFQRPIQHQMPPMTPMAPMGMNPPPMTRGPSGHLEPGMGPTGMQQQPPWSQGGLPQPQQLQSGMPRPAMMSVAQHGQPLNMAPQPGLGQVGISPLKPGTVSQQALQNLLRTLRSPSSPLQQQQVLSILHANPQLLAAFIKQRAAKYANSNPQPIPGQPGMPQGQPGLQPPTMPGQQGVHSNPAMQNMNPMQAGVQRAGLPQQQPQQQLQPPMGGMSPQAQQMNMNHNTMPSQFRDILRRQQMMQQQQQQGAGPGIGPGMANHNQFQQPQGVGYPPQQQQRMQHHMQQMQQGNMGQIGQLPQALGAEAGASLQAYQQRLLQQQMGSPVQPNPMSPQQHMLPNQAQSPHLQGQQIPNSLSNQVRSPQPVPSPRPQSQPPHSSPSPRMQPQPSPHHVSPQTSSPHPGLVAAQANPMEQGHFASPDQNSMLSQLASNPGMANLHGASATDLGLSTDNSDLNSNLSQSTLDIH
# Chain of CBP bromodomain (Q92793 1085-1192): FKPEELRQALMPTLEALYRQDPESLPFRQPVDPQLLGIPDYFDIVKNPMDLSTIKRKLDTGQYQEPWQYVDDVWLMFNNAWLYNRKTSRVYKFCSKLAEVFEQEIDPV
SMILES,IC50 [1],IC50 ([2]; DMS114 cells),viability at 10 µM [4],IC50 [4],IC50 [7],viability at 10 µM [7],IC50 (recombinant p300),IC50 [3],cell growth suppression effect on SMARCA2/A4 deficient cells [9],IC50 ([5]; read-out: JMU-RTK-2 IC50),Selective Index [5],IC50 ([6]; read-out: IC50 G-401),"IC50 [8, 18]",cell growth suppression effect on SMARCB1 deficient cells [11],further results
CNC(=O)N1CCc2c(c(N3CCCc4cc(-c5cnn(C)c5)c(C(F)F)cc43)nn2C2CCOCC2)C1 [Compound 8],> 10000 nM,4010 nM,101%,> 10000 nM,> 10000 nM,92%,–,–,–,–,–,–,–,–,"cell survival rate (%) at treatment with 10 μM, H23 [1]: 77%; cell growth suppression effect on DMS114 cells [2]: cell growth suppression effect; cell survival rate (%) at treatment with 10 μM, TOV112D [3]: 91%; IC50 ([3]; TOV112D): > 10000 nM; IC50 [5, 15]: 900 nM; IC50 (CBP bromodomain): < 25 nM; cell survival rate (%) at treatment with 10 μM, G-401 [6]: 65%; IC50 [6, 16]: > 10000 nM; IC50 [8, 17]: 9100 nM"
Cn1cc(-c2ccc3c(c2)CC[C@]32NC(=O)N(CC(=O)N3Cc4cc(F)ccc4OC[C@H]3C(F)(F)F)C2=O)cn1 [Compound 15],407 nM,90.9 nM,78%,> 10000 nM,> 10000 nM,51%,48 nM,309 nM,particularly selective and potent cell growth suppression effect,3.8 nM,912,41 nM,3400 nM,selective and potent Cell growth suppression effect,IC50 [10]: 420 nM
"CO[C@H]1CC[C@H](n2c([C@@H]3CCCC(=O)N3c3ccc(F)c(F)c3)nc3cc(-c4c(C)noc4C)ccc32)CC1 [CCS-1477, reference compound]",–,–,–,–,–,–,–,–,–,–,–,–,–,–,IC50 value for the ARID1 deficient cancer cell group compared with the ARID1 wild-type cell group [12]: less than the IC50 value for the ARID1 wild-type cell group
"COc1ccc(CCc2nc3cc(-c4c(C)noc4C)ccc3n2C[C@H](C)N2CCOCC2)cc1Cl [SGC-CBP30, reference compound]",–,–,–,–,–,–,–,–,–,–,–,–,–,–,intracellular histone H3K27 acetylation [13]: reduced treatment concentration dependent intracellular histone H3K27 acetylation; IC50 value for the SMARCB1 deficient cell group compared with the SMARCB1 wild-type cell group [14]: less than the IC50 value for the SMARCB1 wild-type cell group
CCN(CC)c1ccc(-c2nc3cc(C(=O)NC)ccc3n2Cc2ccn(CC)n2)cn1 [Compound 6],1130 nM,138 nM,92%,> 10000 nM,> 10000 nM,83%,160 nM,729 nM,particularly selective and potent cell growth suppression effect,55 nM,23.5,260 nM,1300 nM,selective and potent Cell growth suppression effect,–
C[C@H](N(Cc1ccc(F)cc1)C(=O)CN1C(=O)N[C@]2(CCc3cc(-c4cnn(C)c4)ccc32)C1=O)C(F)(F)F [Compound 14],1260 nM,330 nM,89%,> 10000 nM,> 10000 nM,74%,–,–,particularly selective and potent cell growth suppression effect,–,–,–,–,selective and potent Cell growth suppression effect,"IC50 ([3]; TOV112D): 1020 nM; IC50 [5, 15]: 12 nM; IC50 [6, 16]: 150 nM; IC50 [8, 17]: 5200 nM; IC50 [10]: 1300 nM"
O=C(Nc1ccc2[nH]ncc2n1)C1CC(F)CN1C(=O)C1(c2ccc(OC(F)F)cc2)CCC(F)(F)CC1 (stereo not shown) [Compound 5],1420 nM,408 nM,99%,> 10000 nM,> 10000 nM,102%,100 nM,1500 nM,particularly selective and potent cell growth suppression effect,200 nM,45.3,440 nM,8800 nM,selective and potent Cell growth suppression effect,–
Cn1cc(C(=O)Nc2ccc3c(c2)OCCO3)c2ccccc2c1=O [Compound 12],> 10000 nM,> 10000 nM,100%,> 10000 nM,> 10000 nM,104%,–,> 10000 nM,–,3900 nM,3.9,> 10000 nM,14900 nM,–,"cell survival rate (%) at treatment with 10 μM, H23 [1]: 97%; cell survival rate (%) at treatment with 10 μM, DMS114 ([2]; DMS114 cells, 10 μM, 6 days): 86%; cell growth suppression effect on DMS114 cells [2]: cell growth suppression effect; cell survival rate (%) at treatment with 10 μM, TOV112D [3]: 99%; IC50 (CBP bromodomain): < 25 nM; cell survival rate (%) at treatment with 10 μM, G-401 [6]: 83%"
